One assay concerns the target rhACE (Homo sapiens, UniProt P12821). In words: ACE activity assay kit (enzyme kinetics, cell-free). The class given is biochemical. How it is done: (§1) ACE and ACE2 activities were measured using the ACE activity assay kit and SensoLyte390 ACE2 activity assay kit (Anaspec, Fremont, CA, United States), respectively, according to the manufacturer’s instructions with some modifications. Briefly, rhACE solution dissolved in deionized water was used for analysis. ACE activity was measured in a reaction system with 50 μl of the sample and 50 μl of the ACE substrate solution with or without BAC (10^–4 to 10^–2 μM). ACE2 activity was assayed in the same manner as ACE activity. All assays were performed every 10 s for 30 min at 37°C using a Varioskan LUX fluorescence microplate reader (Thermo Fisher Scientific, Waltham, MA, United States). The autofluorescence value in each assay was subtracted from the measured values to generate the final results. The relative fluorescence unit of each sample was normalized to the corresponding total protein concentration, which was measured using a Pierce BCA protein assay kit (Thermo Fisher Scientific).

For assay [1], the system named is spontaneously hypertension rats (SHRs). The experiment in a line: acute experiment: real-time blood pressure after i.v. injection in SHRs. The format is in vivo, rat. The conditions noted are these: for anti-hypertensive effect (in words): acute experiment, i.v. injection 0.6–6 mg kg^−1. How it is done:
(§2) The SHRs were surgically implanted with a catheter via the left femoral artery, vein, and stomach after anesthetizing with 2% pentobarbital sodium (40 mg kg^−1 i.p.,). A pressure sensor was inserted into the terminal of the arterial catheter and connected to a PowerLab system (ADInstruments, New South Wales, Australia) for real-time blood pressure monitoring.
(§3) All three MDAs (BAC, BMC, and BHC) were purchased from Nature-Standard Co., Ltd. (Shanghai, China) and their purities were all over 98%. The anti-hypertensive effects of MDAs were studied in both acute and chronic experiments. The 16-week-old SHRs were used in animal experiments, and each group had six rats. In the acute experiment, drug administration was via i.v. injection. For i.v. injection, the animals were randomly assigned into four groups: vehicle (0.1% DMSO–0.9% salt solution, n = 6), low-dose group (0.6 mg kg^−1 body weight, n = 6), medium-dose group (2 mg kg^−1 body weight, n = 6), and high-dose group (6 mg kg^−1 body weight, n = 6). The drug was administered using a venous catheter. In chronic experiments, the animals were randomly assigned into five groups: vehicle (5% Tween 80–0.9% salt solution, n = 6), captopril group (5 mg kg^−1 body weight, n = 6), low-dose group (3 mg kg^−1 body weight, n = 6), medium-dose group (10 mg kg^−1 body weight, n = 6), and high-dose group (30 mg kg^−1 body weight, n = 6). Oral administration with drug or 5% Tween 80–0.9% salt solution was carried out once a day, and continued for 14 days. The drugs were dissolved in 0.1% DMSO–0.9% salt solution for intravenous injection and in 5% Tween 80–0.9% salt solution for oral administration. Blood pressure was recorded in real time.
(§4) Real-time blood pressure level was monitored after drug treatment in the acute and chronic experiments. All animals were surgically implanted with a catheter in the left femoral artery. After connection to the monitor, all animals were placed at room temperature of 25°C for 0.5–1 h and the average blood pressure value was calculated based on a real-time blood pressure curve (10 s of every 30 s).

A further assay addresses T1, rhACE2 (Homo sapiens, UniProt Q9BYF1).
T1 construct: purchased Proteintech
In words: SPR assay with rhACE2. The conditions noted are these: rhACE2 on chip, 5% DMSO–1.05× PBS. The format is binding. How it is done:
(§5) To screen the potential targets of the MDAs in hypertension, a CVDPlatform (www.cbligand.org/CVD) was used as previously reported ([Zhang et al., 2016a]). The results of database screening were verified by virtual docking with Discovery Studio 3.5 (BIOVIA, San Diego, CA, United States) and then validated in the SPR assay. In the SPR assay, a solution of protein standards was prepared, and the concentration of recombinant human ACE (rhACE) protein and rhACE2 (Proteintech, Rosemont, IL, United States) solution was set to 500 μg ml^−1. […] Finally, the level of binding between the proteins and each molecule was determined based on the K d value.
(SPR reads the build-up and loss of mass on a sensor chip optically.)

In assay [2] the target is T2, recombinant human ACE (rhACE) (Homo sapiens, UniProt P12821).
T2 construct: purchased Proteintech
T2 sequence (P12821 30-1306): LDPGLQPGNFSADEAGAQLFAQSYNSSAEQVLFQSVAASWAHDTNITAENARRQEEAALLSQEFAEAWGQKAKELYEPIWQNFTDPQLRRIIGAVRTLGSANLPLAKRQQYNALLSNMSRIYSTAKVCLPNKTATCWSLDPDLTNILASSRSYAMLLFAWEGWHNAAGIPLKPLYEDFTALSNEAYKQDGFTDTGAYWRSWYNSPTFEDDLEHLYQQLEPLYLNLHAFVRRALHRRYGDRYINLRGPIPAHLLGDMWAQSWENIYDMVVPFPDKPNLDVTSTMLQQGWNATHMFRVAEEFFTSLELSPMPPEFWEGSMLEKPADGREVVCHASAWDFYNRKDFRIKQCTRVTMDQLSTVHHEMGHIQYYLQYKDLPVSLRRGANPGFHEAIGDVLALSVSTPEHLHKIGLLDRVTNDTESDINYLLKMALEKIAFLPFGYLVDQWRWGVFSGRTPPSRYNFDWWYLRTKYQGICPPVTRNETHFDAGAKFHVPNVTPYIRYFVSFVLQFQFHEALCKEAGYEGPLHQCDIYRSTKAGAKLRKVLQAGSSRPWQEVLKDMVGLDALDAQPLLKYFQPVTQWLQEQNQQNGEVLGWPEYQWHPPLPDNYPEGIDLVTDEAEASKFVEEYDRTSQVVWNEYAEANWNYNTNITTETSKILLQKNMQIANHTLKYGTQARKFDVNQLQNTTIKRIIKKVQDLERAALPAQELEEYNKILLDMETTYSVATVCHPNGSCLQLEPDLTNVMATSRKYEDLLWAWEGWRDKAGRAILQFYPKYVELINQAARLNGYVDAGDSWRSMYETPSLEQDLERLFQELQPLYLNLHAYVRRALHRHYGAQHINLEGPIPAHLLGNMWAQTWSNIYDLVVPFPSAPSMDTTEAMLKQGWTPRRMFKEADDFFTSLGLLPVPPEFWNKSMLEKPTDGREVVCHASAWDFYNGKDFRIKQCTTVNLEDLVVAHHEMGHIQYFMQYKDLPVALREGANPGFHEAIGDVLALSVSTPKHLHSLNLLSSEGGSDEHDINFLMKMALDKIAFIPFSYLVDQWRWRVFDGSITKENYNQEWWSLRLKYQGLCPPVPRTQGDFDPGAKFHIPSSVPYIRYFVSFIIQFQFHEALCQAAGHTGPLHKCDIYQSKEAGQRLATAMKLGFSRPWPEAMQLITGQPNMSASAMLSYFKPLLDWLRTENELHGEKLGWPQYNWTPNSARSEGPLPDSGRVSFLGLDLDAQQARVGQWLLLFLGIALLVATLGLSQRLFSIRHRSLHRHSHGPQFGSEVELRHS
In words: SPR assay with rhACE. The class given is binding. The conditions noted are these: rhACE on chip, 5% DMSO–1.05× PBS. How it is done:
as §5

Another assay has as its target hrACE2 (Homo sapiens, UniProt Q9BYF1). The experiment in a line: SensoLyte390 ACE2 activity assay (enzyme kinetics, cell-free). The format is biochemical. The conditions noted are these: EC50 of BMC and BHC could not be determined. As to the method: as §1
The test system of assay [3] is spontaneously hypertension rats (SHRs). The experiment in a line: chronic experiment: blood pressure, heart rate and aorta histology after 14-day oral administration in SHRs. The conditions noted are these: once a day, 14 days. The format is in vivo, rat. How it is done:
as §2, §3, §4
After euthanizing the rats with sodium pentobarbital (100 mg kg^−1, i.p.) administration in combination with isoflurane inhalation, the aortas were harvested directly according to a previously described method. The aortas were fixed in 4% paraformaldehyde for 24 h and embedded in paraffin. The cross-sections (5 μm) were stained with hematoxylin and eosin or subjected to immunostaining. Immunofluorescence staining for ACE and ACE2 was performed according to the manufacturer’s instructions (Servicebio, Wuhan, China).

As usually defined, the Kd is the free concentration of one partner at which half of the binding sites on the other are occupied at equilibrium, for simple one-to-one binding. By IC50 is commonly meant the concentration at which inhibition is half-maximal. Higher therefore signals lower potency.

T1 sequence (Q9BYF1 18-805): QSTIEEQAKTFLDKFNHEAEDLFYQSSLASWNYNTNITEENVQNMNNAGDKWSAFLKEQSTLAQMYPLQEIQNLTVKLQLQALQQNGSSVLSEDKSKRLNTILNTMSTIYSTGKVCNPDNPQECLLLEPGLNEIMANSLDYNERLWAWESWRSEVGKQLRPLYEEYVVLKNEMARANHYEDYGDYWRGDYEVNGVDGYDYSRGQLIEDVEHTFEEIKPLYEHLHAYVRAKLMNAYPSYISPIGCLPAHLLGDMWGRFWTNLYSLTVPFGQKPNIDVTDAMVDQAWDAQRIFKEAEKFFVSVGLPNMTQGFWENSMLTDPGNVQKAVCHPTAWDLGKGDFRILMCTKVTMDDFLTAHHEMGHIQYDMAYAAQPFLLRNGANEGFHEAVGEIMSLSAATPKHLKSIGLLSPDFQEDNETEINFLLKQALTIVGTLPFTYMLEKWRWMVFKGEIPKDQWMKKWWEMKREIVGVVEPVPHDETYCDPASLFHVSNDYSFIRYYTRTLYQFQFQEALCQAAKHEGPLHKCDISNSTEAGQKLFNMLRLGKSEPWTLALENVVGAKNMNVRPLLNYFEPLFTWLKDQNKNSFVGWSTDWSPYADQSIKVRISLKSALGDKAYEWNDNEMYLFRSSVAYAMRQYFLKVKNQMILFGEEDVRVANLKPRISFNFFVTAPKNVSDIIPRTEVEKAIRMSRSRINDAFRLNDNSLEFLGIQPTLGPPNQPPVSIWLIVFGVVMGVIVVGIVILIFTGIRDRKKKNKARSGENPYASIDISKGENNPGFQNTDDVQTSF
Sequence of hrACE2 (Q9BYF1 18-805): as above
Sequence of rhACE (P12821 30-1306): as the sequence (P12821 30-1306) above

Consider `COCC12CCC(OC)C34C5CC6(O)C(OC)C(O)C(O)(C5C6OC(=O)c5ccccc5)C(C(OC)C13)C4N(C)C2` (stereo not drawn) [BHC, Benzoylhypaconitine], for which the “effect on ACE activity (in words)” value at rhACE (IC50 could not be determined) is on record as “little effect”. In addition, in assay [1], the “anti-hypertensive effect (in words)” value is on record as “no anti-hypertensive effects”. Besides, the Kd came out at 308 µM at rhACE2 and 139 µM in assay [2]. Moreover, the “effect on ACE2 activity (in words)” value at hrACE2 is “weaker pharmacodynamics effects”.
As to `COCC12CN(C)C3C4C(OC)C1C3(C(OC)CC2O)C1CC2(O)C(OC)C(O)C4(O)C1C2OC(=O)c1ccccc1` (stereo not drawn) [BMC, Benzoylmesaconine], half-maximal inhibition at rhACE (37°C, 30 min) (IC50) required 0.96 µM. For the same compound, in assay [1], the “anti-hypertensive effect (in words)” value is given as “observable anti-hypertensive effects”. Also, the blood pressure reduction entry in assay [1] (i.v. injection, 6 mg kg^−1) was “approximately 20 mmHg”. The dissociation constant (Kd) is 20.5 µM at rhACE2 and 53.6 µM in assay [2]. For the same compound, the “effect on ACE2 activity (in words)” value on hrACE2 is recorded as “weaker pharmacodynamics effects”.
`C[C@H](CS)C(=O)N1CCC[C@H]1C(=O)O` [captopril, reference compound]: the heart rate entry in assay [3] is “Heart rate changed”.

These data come from paper PMC8963105, “A Novel Modulator of the Renin–Angiotensin System, Benzoylaconitine, Attenuates Hypertension by Targeting ACE/ACE2 in Enhancing Vasodilation and Alleviating Vascular Inflammation” (Frontiers in Pharmacology, 2022).
